# Data taken from patent US20070032477A1, “Pteridine derivatives useful for making pharmaceutical compositions” (priority 2003, published 2007).
# Key:
# [1] = system: CII induced rheumatoid arthritis in DBA mice; test: Collagen type II induced model of rheumatoid arthritis; settings: mice in vivo; example 17 up to 40 mg/kg/day; methotrexate 10 mg/kg/day, 3 times a week
# From the text: Collagen type II (hereinafter referred as CII) induced experimental model of rheumatoid arthritis (hereinafter referred as RA) in DBA mice is widely accepted as the most relevant and predictive preclinical model for RA. In this model, DBA mice are immunized with CII, the collagen type mainly present in the joint structures, together with complete Freund Adjuvant in their tail. 2 to 3 weeks later, several of the immunized mice start to develop arthritis in the four footpaths. In order to further worsen the disease, mice are given a second CII boost at three weeks after the first immunisation, this time however in a footpath. Because the immune system is already immunised in these mice, this rapidly provokes a severe swelling of the injected footpath (named Delayed Type Hypersensitivity or DTH) which can be used as a measurement for T-cell activation. Within a few days after the booster, almost all untreated animals start developing symptoms of arthritis. RA development is scored from 0 to 16 (16 being severe clinical arthritis in all four footpaths). At the end of the study (3 weeks after the CII boost) antibody formation was determined against CII and histology performed on the footpaths.
# The efficiency of the pteridine derivative of example 17 (administered in an amount of 20 mg/kg/day, started one day before the CII boost) was explored in this CII-model.
# [2] = system: TNBS-induced colitis in C57 BL/6 male mice; test: Trinitrobenzenesulfonate-induced colitis test in mice (Example 210); format: in vivo
# Description: C57 BL/6 male mice (4-5 weeks) were obtained from M&B (Denmark), bred under standard pathogen-free conditions and maintained in the certified animal facility of the University Hospital Gasthuisberg, Catholic University of Leuven (Leuven, Belgium). Experiments were approved by the local Ethical Committee of Animal Experimentation. Colitis was induced by rectal administration of 1 mg trinitrobenzenesulphonate (hereinafter referred as TNBS) in 50% ethanol with 2 times pre-sensitization. Briefly, mice were sensitized twice 10 days and 5 days before challenge. For sensitization, a 2×2 cm field of the abdominal skin was shaved, and 100 μl of 5 mg TNBS in 50% ethanol solution was applied. On the day of challenge, mice were first lightly anesthetized with metofane, subsequently TNBS was administered per rectum via a round-tip needle equipped with a 1-ml syringe. The tip of the needle was inserted so that the tip was 3.5 to 4 cm proximal to the anal verge and TNBS was injected with a total volume of 100 μl. To ensure distribution of TNBS within the entire colon and cecum, mice were held in a vertical position for 1 minute after the injection.
# The compound of example 17 (2-amino-4-[(N-phenoxyacetyl)-piperazin-1-yl]-6-(3,4-dimethoxy-phenyl)pteridine) was given by daily intra-peritoneal injection at the dose of 20 mg/kg (400 μg dissolved in 100 μl PBS with 10% DMSO). Control mice were treated with vehicle only. Body weights of all animals were recorded daily in order to follow the development of inflammatory colitis over a period of 10 days.
# Both macroscopic and microscopic histology evaluations were performed as follows. Briefly, mice were sacrificed at day 2 by cervical […], the colon was excised and was immediately examined visually, and damage was scored on a 0-12 scale, as described previously by Shen et al. in Int. Immunopharmacol. (2004), 4:939-951. Colon sections were then fixed in 6% formalin and embedded in paraffin, cut into sections, and then stained with hematoxylin and eosin. Stained sections were examined for evidence of colitis using as criteria the presence of cell infiltration, elongation and/or distortion of crypts, crypt abscesses, reduction in goblet cell number, frank ulceration, and edema formation.
# Myeloperoxidase (MPO) activity was measured as described previously by Shen et al. (cited supra). Briefly, two days after intracolonic injection of TNBS, 50 mg colon was removed, homogenised and sonicated on ice. Samples were frozen in liquid nitrogen and subsequently thawed in a water bath at 37° C., each step lasted 3 minutes and the procedure was repeated for two cycles. After centrifugation an aliquot of the supernatant was then allowed to react with a solution of tetra-methyl-benzidine (1.6 mM) and 0.1 mM H2O2. The rate of change in absorbance was measured spectrophotometrically at 460 nm. MPO activity was defined as the quantity of enzyme degrading 1 μmol of peroxide/minute at 37° C. and was expressed in units per gram weight of wet tissue. Sample enzyme activity was measured from a standard curve of known MPO unit activity (assay sensitivity 5×10^−7 units per well).
# Serum levels of antibodies generated against TNBS were measured in the mouse sera on the 10th day after disease induction by enzyme-linked immunosorbent assay (ELISA). The ELISA method used herein is as reported in detail by Shen et al (cited supra).
# Quantitative Reverse Transcriptase (RT)-PCR for cytokine mRNA was performed as follows: part of the colon removed on day 2 after TNBS application was immediately frozen in liquid nitrogen after dissection and stored at −70° C. until extraction of total RNA using the method of Shen et al (cited supra). A constant amount of 1 μg of total RNA was used for oligo-(dT)-primed cDNA synthesis (Ready-to-go-kit, Pharmacia, Uppsala, Sweden). After 90 minutes at 37° C., the reverse transcriptase was inactivated by incubating the cDNA samples for 5 minutes at 95° C. […]
compound,measurement,setting,value
"COc1ccc(-c2cnc3nc(N)nc(N4CCN(C(=O)COc5ccccc5)CC4)c3n2)cc1OC [Example 17, 2-amino-4-[(N-phenoxyacetyl)-piperazin-1-yl]-6-(3,4-dimethoxy-phenyl)pteridine]",mortality or cytotoxic effect on increasing the dose,[1],no mortality or cytotoxic effect
same,days required to recover original body weight,[2]; daily i.p. 20 mg/kg,6 days
same,microscopic score,"[2]; daily i.p. 20 mg/kg, day 2",6.0±0.7
same,average macroscopic score,"[2]; daily i.p. 20 mg/kg, day 2, 0-12 scale",6.3±0.7
same,MPO activity in colon,"[2]; daily i.p. 20 mg/kg, two days after TNBS",8.9±2.0 U/g
same,reduction in average macroscopic score,"[2]; daily i.p. 20 mg/kg, versus control mice",30%
same,"cytokine mRNA levels for TNF-α, IL-18 and IFN-γ in colon","[2]; day 2, differences did not reach statistical significance",all reduced
same,Anti-TNBS antibody (IgG2a) levels,"[2]; serum, after treatment",76.6±3.3 OD
same,Anti-TNBS antibody (IgG1) levels,"[2]; serum, compared to untreated mice",significantly lower
